Experimental data: patent US20220298138A1, “ENZYME INHIBITORS” (KALVISTA PHARMACEUTICALS LIMITED, priority 2019, published 2022)

Biological target: T1, Human Factor XIIa (Homo sapiens, UniProt P00748)
T1 construct: purchased Enzyme Research Laboratories
T1 sequence (P00748 373-615 limits assumed): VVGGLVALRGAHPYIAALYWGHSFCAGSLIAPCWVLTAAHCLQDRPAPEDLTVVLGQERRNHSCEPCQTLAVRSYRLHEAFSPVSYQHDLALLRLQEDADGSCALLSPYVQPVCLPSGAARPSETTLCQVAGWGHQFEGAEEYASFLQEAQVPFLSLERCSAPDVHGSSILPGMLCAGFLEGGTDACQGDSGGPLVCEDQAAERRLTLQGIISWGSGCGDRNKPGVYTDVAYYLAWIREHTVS
Test: Factor XIIa inhibitory activity in vitro (fluorogenic substrate H-DPro-Phe-Arg-AFC)
Type: biochemical
Conditions: 25° C., class symbols, read-out: Human FXIIa IC50
Method: Determination of the % Inhibition for FXIIa
Human Factor XIIa (Enzyme Research Laboratories) was incubated at 25° C. with the fluorogenic substrate H-DPro-Phe-Arg-AFC and various concentrations of the test compound. Residual enzyme activity (initial rate of reaction) was determined by measuring the change in […] at 410 nm and the IC50 value for the test compound was determined.

SMILES	IC50
CS(=O)(=O)c1cccc(CC(=O)N[C@@H](Cc2ccc(F)c(F)c2)C(=O)NCc2ccc3c(N)nccc3c2)c1 [Example 3.24]	3 to 10 µM
N#Cc1cccc(CC(=O)N[C@@H](Cc2ccc(F)c(F)c2)C(=O)NCc2ccc3c(N)nccc3c2)c1 [Example 3.25]	10 to 40 µM
Nc1nccc2cc(CNC(=O)[C@H](Cc3ccc(F)c(F)c3)NC(=O)Cc3ccsc3)ccc12 [Example 3.26]	10 to 40 µM
Cc1ccc(CN(C)CC(=O)N[C@@H](Cc2ccc(F)c(F)c2)C(=O)NCc2ccc3c(N)nccc3c2)cc1 [Example 3.27]	10 to 40 µM
CC(C)(O)CC(=O)N[C@@H](Cc1ccc(F)c(F)c1)C(=O)NCc1ccc2c(N)nccc2c1 [Example 3.28]	10 to 40 µM
Nc1nccc2cc(CNC(=O)[C@H](Cc3ccc(F)c(F)c3)NC(=O)CCn3cc(C(F)(F)F)ccc3=O)ccc12 [Example 3.29]	10 to 40 µM
CCCCOCC(=O)N[C@@H](Cc1ccc(F)c(F)c1)C(=O)NCc1ccc2c(N)nccc2c1 [Example 3.30]	10 to 40 µM
Cc1nccn1CCC(=O)N[C@@H](Cc1ccc(F)c(F)c1)C(=O)NCc1ccc2c(N)nccc2c1 [Example 3.31]	3 to 10 µM
Nc1nccc2cc(CNC(=O)[C@H](Cc3ccc(F)c(F)c3)NC(=O)Cc3nc(-c4cccnc4)n[nH]3)ccc12 [Example 3.32]	10 to 40 µM
Nc1nccc2cc(CNC(=O)[C@H](Cc3ccc(F)c(F)c3)NC(=O)CN3CCOc4ccccc4C3)ccc12 [Example 3.33]	10 to 40 µM
Nc1nccc2cc(CNC(=O)[C@H](Cc3ccc(F)c(F)c3)NC(=O)Cc3ccccn3)ccc12 [Example 3.34]	10 to 40 µM
Nc1nccc2cc(CNC(=O)[C@H](Cc3ccc(F)c(F)c3)NC(=O)C[C@@H]3CCCO3)ccc12 [Example 3.35]	10 to 40 µM
Nc1nccc2cc(CNC(=O)[C@H](Cc3ccc(F)c(F)c3)NC(=O)C[C@H]3CCCO3)ccc12 [Example 3.36]	10 to 40 µM
Nc1nccc2cc(CNC(=O)[C@H](Cc3ccc(F)c(F)c3)NC(=O)CN3CCCC3=O)ccc12 [Example 3.37]	10 to 40 µM
Nc1nccc2cc(CNC(=O)[C@H](Cc3ccc(F)c(F)c3)NC(=O)CN3CCCCCC3)ccc12 [Example 3.38]	1 to 3 µM
Nc1nccc2cc(CNC(=O)[C@H](Cc3ccc(F)c(F)c3)NC(=O)CN3CCCCC3=O)ccc12 [Example 3.39]	10 to 40 µM
CN1CCN(CC(=O)N[C@@H](Cc2ccc(F)c(F)c2)C(=O)NCc2ccc3c(N)nccc3c2)CC1 [Example 3.40]	10 to 40 µM
Nc1nccc2cc(CNC(=O)[C@H](Cc3ccc(F)c(F)c3)NC(=O)CN3CCCC3)ccc12 [Example 3.41]	1 to 3 µM
CC1CCCC(C)N1CC(=O)N[C@@H](Cc1ccc(F)c(F)c1)C(=O)NCc1cnc2[nH]cc(Cl)c2c1 (stereo partly drawn) [Example 3.101]	1 to 3 µM
CC1CCCC(C)N1CC(=O)N[C@@H](Cc1ccc(F)c(F)c1)C(=O)NCc1ccnc(N)c1 (stereo partly drawn) [Example 3.102]	10 to 40 µM
C[C@@H]1CCC[C@H](C)N1CC(=O)N[C@@H](Cc1ccc(F)c(F)c1)C(=O)NCc1ccc2[nH]cnc2c1 [Example 3.103]	10 to 40 µM

SMILES	IC50
C[C@@H]1CCC[C@H](C)N1CC(=O)N[C@@H](Cc1ccc(F)c(F)c1)C(=O)NCc1ccc2c(N)n[nH]c2c1 [Example 3.104, (2S)—N-[(3-amino-1H-indazol-6-yl)methyl]-3-(3,4-difluorophenyl)-2-{2-[(2R,6S)-2,6-dimethylpiperidin-1-yl]acetamido}propanamide]	10 to 40 µM
C[C@@H]1CCC[C@H](C)N1CC(=O)N[C@@H](Cc1ccc(F)c(F)c1)C(=O)NCc1ccc2c(N)noc2c1 [Example 3.105, (2S)—N-[(3-amino-1,2-benzoxazol-6-yl)methyl]-3-(3,4-difluorophenyl)-2-{2-[(2R,6S)-2,6-dimethylpiperidin-1-yl]acetamido}propanamide]	10 to 40 µM
CCC(C)[C@H](C(=O)N[C@@H](Cc1ccc(F)c(F)c1)C(=O)NCc1ccc2c(N)nccc2c1)N(C)C (stereo partly drawn) [Example 5.101]	3 to 10 µM
CC(C)N(C)[C@H](C)C(=O)N[C@@H](Cc1ccc(F)c(F)c1)C(=O)NCc1ccc2c(N)nccc2c1 [Example 5.102]	0.28 to 1 µM
CC(C(=O)N[C@@H](Cc1ccc(F)c(F)c1)C(=O)NCc1ccc2c(N)nccc2c1)N1CCCC1 (stereo partly drawn) [Example 5.103]	1 to 3 µM
C[C@@H](C(=O)N[C@@H](Cc1ccc(F)c(F)c1)C(=O)NCc1ccc2c(N)nccc2c1)N(C)C [Example 5.104]	10 to 40 µM
C[C@@H]1CCC[C@H](C)N1[C@H](C)C(=O)N[C@@H](Cc1ccc(F)c(F)c1)C(=O)NCc1ccc2c(N)nccc2c1 [Example 5.105]	0.28 to 1 µM
C[C@@H]1CCC[C@H](C)N1[C@@H](C)C(=O)N[C@@H](Cc1ccc(F)c(F)c1)C(=O)NCc1ccc2c(N)nccc2c1 [Example 5.106]	3 to 10 µM
CC(C)(C)OC(=O)N[C@H](CCc1ccccc1)C(=O)NCC(=O)NCc1ccc2c(N)nccc2c1 [Example 6.01]	10 to 40 µM
Nc1nccc2cc(CNC(=O)CNC(=O)[C@H](N)CCc3ccccc3)ccc12 [Example 6.02]	0.28 to 1 µM
CC(C)(C)OC(=O)N[C@H](CCc1ccccc1)C(=O)NC(C)(C)C(=O)NCc1ccc2c(N)nccc2c1 [Example 6.03]	10 to 40 µM
CC[C@H](NC(=O)[C@@H](CCc1ccccc1)NC(=O)OC(C)(C)C)C(=O)NCc1ccc2c(N)nccc2c1 [Example 6.04]	10 to 40 µM
CC[C@H](NC(=O)[C@H](N)CCc1ccccc1)C(=O)NCc1ccc2c(N)nccc2c1 [Example 6.05]	1 to 3 µM
CC(C)(NC(=O)[C@H](N)CCc1ccccc1)C(=O)NCc1ccc2c(N)nccc2c1 [Example 6.06]	0.28 to 1 µM
CC(C)N[C@H](CCc1ccccc1)C(=O)NCC(=O)NCc1ccc2c(N)nccc2c1 [Example 6.07]	0.28 to 1 µM
CN[C@H](CCc1ccccc1)C(=O)N[C@@H](Cc1ccccc1)C(=O)NCc1ccc2c(N)nccc2c1 [Example 6.08]	3 to 10 µM
C[C@H](NC(=O)[C@@H](CCc1ccccc1)NC(=O)c1ccccc1)C(=O)NCc1ccc2c(N)nccc2c1 [Example 6.26]	10 to 40 µM
CC(C)N[C@H](CCc1ccccc1)C(=O)N[C@@H](C)C(=O)NCc1ccnc(N)c1 [Example 9.09]	3 to 10 µM
CC(C)N[C@H](CCc1ccccc1)C(=O)N[C@@H](C)C(=O)NCc1ccc(CN)cc1 [Example 9.10]	3 to 10 µM
COc1ccc(CNC(=O)[C@H](C)NC(=O)[C@@H](CCc2ccccc2)NC(C)C)cc1Cl [Example 9.11]	10 to 40 µM
CC(C)N[C@H](CCc1ccccc1)C(=O)N[C@@H](C)C(=O)NCCc1ccnc(N)c1 [Example 9.12]	10 to 40 µM

SMILES	IC50
C[C@H](NC(=O)[C@@H](CCc1ccccc1)NS(C)(=O)=O)C(=O)NCc1ccc2[nH]cc(Cl)c2c1 [Example 9.16]	10 to 40 µM
C[C@H](NC(=O)[C@@H](CCc1ccccc1)NC1CCOCC1)C(=O)NCc1ccc2[nH]cc(Cl)c2c1 [Example 9.17]	3 to 10 µM
C[C@H](NC(=O)[C@@H](CCc1ccccc1)NCC(C)(C)C)C(=O)NCc1ccc2[nH]cc(Cl)c2c1 [Example 9.18]	0.28 to 1 µM
CCOC(=O)c1cn(-c2ccc(OC)c(F)c2CNC(=O)[C@H](C)NC(=O)[C@@H](CCc2ccccc2)NC(C)C)nn1 [Example 9.19]	10 to 40 µM
CC(C)N[C@H](CCc1ccccc1)C(=O)N[C@@H](C)C(=O)NCC1CNc2ccc(Cl)cc2O1 (stereo partly drawn) [Example 9.20]	10 to 40 µM
C[C@H](NC(=O)[C@@H](CCc1ccccc1)NS(C)(=O)=O)C(=O)NCc1cnc2[nH]cc(Cl)c2c1 [Example 9.21]	10 to 40 µM
CC(NC(=O)[C@@H](CCc1ccccc1)NC1CCOCC1)C(=O)NCc1cnc2[nH]cc(Cl)c2c1 (stereo partly drawn) [Example 9.22]	10 to 40 µM
CC(C)N[C@H](CCc1ccccc1)C(=O)N[C@@H](C)C(=O)NCc1cc2c(Cl)cccc2s1 [Example 9.23]	10 to 40 µM
C[C@H](NC(=O)[C@@H](CCc1ccccc1)NCc1ccccc1)C(=O)NCc1ccc2[nH]cc(Cl)c2c1 [Example 9.25]	1 to 3 µM
C[C@H](NC(=O)[C@@H](CCc1ccccc1)NCC(C)(C)C)C(=O)NCc1cnc2[nH]cc(Cl)c2c1 [Example 9.26]	3 to 10 µM
N[C@H](CCCCN1CCOCC1)C(=O)N1CC[C@H]1C(=O)NCc1ccc2[nH]cc(Cl)c2c1 [Example 10.19]	3 to 10 µM
CC(C)N[C@H](CCCCN1CCOCC1)C(=O)N1CC[C@H]1C(=O)NCc1ccc2[nH]cc(Cl)c2c1 [Example 10.20]	0.28 to 1 µM
CC(C)N[C@H](CCc1ccccc1)C(=O)N[C@@H](Cc1ccc(F)c(F)c1)C(=O)NCc1ccc2c(N)nccc2c1 [Example 12.12]	3 to 10 µM
CC(C)(C)OC(=O)N[C@H](CCc1ccccc1)C(=O)N1CCC[C@H]1C(=O)NCc1ccc2c(N)nccc2c1 [Example 17.01]	3 to 10 µM
Nc1nccc2cc(CNC(=O)[C@@H]3CCCN3C(=O)[C@H](N)CCc3ccccc3)ccc12 [Example 17.02]	0.28 to 1 µM
Nc1nccc2cc(CNC(=O)[C@@H]3CCCCN3C(=O)[C@H](N)CCc3ccccc3)ccc12 [Example 17.03]	1 to 3 µM
Nc1nccc2cc(CNC(=O)[C@@H]3CCCN(C(=O)[C@H](N)CCc4ccccc4)C3)ccc12 [Example 17.04]	3 to 10 µM
CCC(C)[C@@H](N)C(=O)N[C@@H](Cc1cccc2ccccc12)C(=O)NCc1ccc2c(N)nccc2c1 (stereo partly drawn) [Example 18.101]	1 to 3 µM
Nc1nccc2cc(CNC(=O)CNC(=O)[C@@H](CCc3ccccc3)NS(=O)(=O)Cc3ccccc3)ccc12 [Example 18.102]	1 to 3 µM
CCC(C)[C@H](C(=O)NCC(=O)NCc1ccc2c(N)nccc2c1)N(C)C (stereo partly drawn) [Example 18.103]	10 to 40 µM
CN(C)[C@H](CCc1ccccc1)C(=O)NCC(=O)NCc1ccc2c(N)nccc2c1 [Example 18.104]	1 to 3 µM
